Like-named read-outs stand apart in the source and are kept apart here.

This assay has as its target T1, CFTR (Homo sapiens, UniProt P13569, DEL508-508).
T1 construct: endogenous in cells; host or cells: primary human bronchial epithelial cells from CF subjects (F508del/MF-HBE), differentiated at air-liquid interface
Nature of the assay: HBE assay: Ussing chamber assay of CFTR-mediated short-circuit currents. In kind it is cell-based. As to conditions: for EC50: read-out: HBE EC50. The gist of the method:
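CFTR-mediated Isc (μA/cm²) equals the peak response to apical 20 μM forskolin minus the residual after a 20 μM each BPO/GlyH-101/CFTR inhibitor 172 cocktail, recorded in Ussing chambers at Vhold 0 mV, 37 °C, pH 7.4, with 30 μM apical amiloride. Cells were F508del/MF HBE cultures preincubated 18-24 h with corrector (concentration range or 10 μM) plus 1 μM ivacaftor in 20% human serum.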

The mark [1] stands for this setting: Table 11, read-out: HBE Max Activity (%).
Where [2] appears, read: Table 12, read-out: HBE Activity at 10 μM (%).
The mark [3] stands for this setting: Table 13, read-out: HBE Activity at 10 μM (%).
Where [4] appears, read: Table 10, read-out: HBE activity at 10 (μM) (%).
Where [5] appears, read: Table 10, read-out: HBE Max activity (%).
Where [6] appears, read: Table 12, read-out: HBE Max Activity (%).
Where [7] appears, read: Table 11, read-out: HBE Activity at 10 μM (%).
Where [8] appears, read: HBE assay, read-out: HBE Max activity (%).

T1 sequence (P13569 with tags, fused parts or gaps DEL508-508): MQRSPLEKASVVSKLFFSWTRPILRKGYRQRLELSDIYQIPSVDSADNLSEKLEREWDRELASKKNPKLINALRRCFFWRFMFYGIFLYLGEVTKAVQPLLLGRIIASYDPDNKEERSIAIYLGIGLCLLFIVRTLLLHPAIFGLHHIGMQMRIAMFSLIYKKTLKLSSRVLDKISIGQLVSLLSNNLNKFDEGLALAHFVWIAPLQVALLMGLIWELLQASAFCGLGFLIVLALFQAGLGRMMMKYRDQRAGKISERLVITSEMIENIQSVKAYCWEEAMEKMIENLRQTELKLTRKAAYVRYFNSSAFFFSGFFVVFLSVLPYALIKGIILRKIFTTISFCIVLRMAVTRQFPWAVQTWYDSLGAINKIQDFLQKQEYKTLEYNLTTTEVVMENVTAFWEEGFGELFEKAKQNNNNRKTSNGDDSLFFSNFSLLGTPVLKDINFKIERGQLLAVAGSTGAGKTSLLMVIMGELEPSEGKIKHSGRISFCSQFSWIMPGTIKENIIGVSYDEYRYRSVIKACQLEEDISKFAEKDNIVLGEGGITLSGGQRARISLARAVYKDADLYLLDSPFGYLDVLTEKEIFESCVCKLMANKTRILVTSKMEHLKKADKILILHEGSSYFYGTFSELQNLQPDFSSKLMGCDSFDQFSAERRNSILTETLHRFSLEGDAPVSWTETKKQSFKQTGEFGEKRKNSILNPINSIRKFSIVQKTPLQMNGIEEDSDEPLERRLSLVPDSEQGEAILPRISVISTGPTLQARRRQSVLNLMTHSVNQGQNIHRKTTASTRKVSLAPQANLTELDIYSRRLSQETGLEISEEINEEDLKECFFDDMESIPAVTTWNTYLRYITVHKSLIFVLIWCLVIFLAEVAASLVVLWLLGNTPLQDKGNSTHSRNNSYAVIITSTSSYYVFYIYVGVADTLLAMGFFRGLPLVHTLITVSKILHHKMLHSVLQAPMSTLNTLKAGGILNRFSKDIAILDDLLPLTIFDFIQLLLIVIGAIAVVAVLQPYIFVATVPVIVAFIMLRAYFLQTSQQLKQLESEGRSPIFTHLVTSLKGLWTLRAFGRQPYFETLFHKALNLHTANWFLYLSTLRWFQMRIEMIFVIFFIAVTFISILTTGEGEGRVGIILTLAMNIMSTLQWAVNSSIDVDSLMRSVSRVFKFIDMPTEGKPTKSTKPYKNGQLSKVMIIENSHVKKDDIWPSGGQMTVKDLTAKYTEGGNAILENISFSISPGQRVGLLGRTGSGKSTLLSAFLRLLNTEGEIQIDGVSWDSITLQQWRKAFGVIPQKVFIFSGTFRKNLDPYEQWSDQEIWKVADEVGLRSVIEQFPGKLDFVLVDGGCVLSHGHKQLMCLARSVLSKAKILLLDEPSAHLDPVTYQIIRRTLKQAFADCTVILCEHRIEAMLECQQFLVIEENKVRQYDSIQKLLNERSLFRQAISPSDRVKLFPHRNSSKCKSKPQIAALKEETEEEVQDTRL

What is called EC50 is the concentration at which the effect is half-maximal. Consider `Cc1cccc(C)c1-c1cc2nc(n1)NS(=O)(=O)c1cccc(c1)C(=O)N(Cc1cncc(N(C)C)n1)[C@H](CC(C)(C)C)CO2` [Compound 885], for which the EC50 (Table 11) is less than 1 µM. The Emax under setting [1] was more than 60%.
Regarding `COCCN(C)c1ccnc(CN2C(=O)c3cccc(c3)S(=O)(=O)Nc3nc(cc(-c4c(C)cccc4C)n3)OC[C@H]2CC(C)(C)C)c1` [Compound 887], where the note is “Table 11”, the half-maximal effective concentration (EC50) is less than 1 µM. The Emax under setting [1] is more than 60%.
As to `Cc1cccc(C(C)C)c1-c1cc2nc(n1)NS(=O)(=O)c1cccc(c1)C(=O)N(Cc1ncc(OC(C)C)cn1)[C@H](CC(C)C)CO2` [Compound 241], the activation at 10 µM under setting [2] was more than 600%.
In the case of `Cc1ccc2c(c1)CCN(C(=O)CN1C(=O)c3cccc(c3)S(=O)(=O)Nc3nc(cc(-c4c(C)cccc4C)n3)OC[C@H]1CC(C)(C)C)C2` [Compound 209], the activation at 10 µM under setting [3] was more than 600%.
Take `Cc1cccc(C)c1-c1cc2nc(n1)NS(=O)(=O)c1cccc(c1)C(=O)N(Cc1ncccc1-c1cn[nH]c1)[C@H](CC(C)(C)C)CO2` [Compound 53, (11R)-6-(2,6-Dimethylphenyl)-11-(2,2-dimethylpropyl)-2,2-dioxo-12-[[3-(1H-pyrazol-4-yl)-2-pyridyl]methyl]-9-oxa-2λ^6-thia-3,5,12,19-tetrazatricyclo[12.3.1.14,8]nonadeca-1(18),4(19),5,7,14,16-hexaen-13-one]: under setting [4], the activation at 10 µM was more than 60%. Besides, the EC50 (Table 10) is less than 1 µM. Also, the Emax under setting [5] is more than 60%.
On to `COc1cccc(C)c1-c1cc2nc(n1)NS(=O)(=O)c1cccc(c1)C(=O)N(Cc1ncc(CC(C)C)cn1)[C@H](CC(C)(C)C)CO2` [Compound 576], for which the activation at 10 µM under setting [2] is more than 600%.
As to `Cc1cccc(C)c1-c1cc2nc(n1)NS(=O)(=O)c1cccc(c1)C(=O)N(Cc1cc(N3CCCCC3)ccn1)[C@H](CC(C)(C)C)CO2` [Compound 888], under “Table 11”, the EC50 was less than 1 µM. In addition, under setting [1], the Emax was more than 60%.
As for `Cc1cccnc1-c1cccc(CN2C(=O)c3cccc(c3)S(=O)(=O)Nc3nc(cc(-c4c(C)cccc4C)n3)OC[C@H]2CC(C)(C)C)n1` [Compound 591], the activation at 10 µM under setting [2] was more than 600%.
Regarding `Cc1cc(C2CCOCC2)ccc1CN1C(=O)c2cccc(c2)S(=O)(=O)Nc2nc(cc(-c3c(C)cccc3C)n2)OC[C@H]1CC(C)(C)C` [Compound 519], under setting [3], the activation at 10 µM is more than 600%.
For the molecule `Cc1cccc(C)c1-c1cc2nc(n1)NS(=O)(=O)c1cccc(c1)C(=O)N(Cc1ccc(N3CCOCC3)cc1)[C@H](CC(C)(C)C)CO2` [Compound 498], the EC50 (Table 10) was less than 1 µM. Also, the Emax under setting [5] is more than 60%.
Consider `COCC(C)N(C)c1cncc(CN2C(=O)c3cccc(c3)S(=O)(=O)Nc3nc(cc(-c4c(C)cccc4C)n3)OC[C@H]2CC(C)(C)C)n1` (stereo partly drawn) [Compound 444], for which the EC50 (Table 12) is less than 1 µM. For the same molecule, under setting [6], the Emax is more than 60%.
For `Cc1cccc(C)c1-c1cc2nc(n1)NS(=O)(=O)c1cccc(c1)C(=O)N(Cc1cnnn1C)[C@H](CC(C)(C)C)CO2` [Compound 774], the activation at 10 µM under setting [7] was more than 60%.
Consider `Cc1cccc(C)c1-c1cc2nc(n1)NS(=O)(=O)c1cccc(c1)C(=O)N(Cc1ccc(N3CCC(C(=O)N(C)C)CC3)cn1)[C@H](CC(C)(C)C)CO2` [Compound 249], for which, under setting [3], the activation at 10 µM is more than 600%.
Still for that read-out and setting: the same measure for `Cc1cccc(C)c1-c1cc2nc(n1)NS(=O)(=O)c1cccc(c1)C(=O)N(CC(=O)N1CCC[C@@H](C)C1)[C@H](CC(C)(C)C)CO2` [Compound 184]: more than 600%.
On to `Cc1cccc(C)c1-c1cc2nc(n1)NS(=O)(=O)c1cccc(c1)C(=O)N(Cc1ccnc(C(C)C)n1)[C@H](CC(C)(C)C)CO2` [Compound 584], for which the EC50 (Table 12) is less than 1 µM. Besides, the Emax under setting [6] was more than 60%.
With `CC(C)c1cccc(C(C)C)c1-c1cc2nc(n1)NS(=O)(=O)c1cccc(c1)C(=O)N(Cc1ccc(N3CCCCC3)cn1)[C@H](CC(C)(C)C)CO2` [Compound 829], the activation at 10 µM under setting [4] was more than 60%.
Turning to `Cc1cccc(C)c1-c1cc2nc(n1)NS(=O)(=O)c1cccc(c1)C(=O)N(CC1CN(C(=O)OC(C)(C)C)CCO1)[C@H](CC(C)(C)C)CO2` (stereo partly drawn) [Compound 723], the EC50 (Table 11) is less than 1 µM. The Emax under setting [1] is more than 60%.
`COCC1CCC(C)(C)N1c1cncc(CN2C(=O)c3cccc(c3)S(=O)(=O)Nc3nc(cc(-c4c(C)cccc4C)n3)OC[C@H]2CC(C)(C)C)n1` (stereo in doubt) [Compound 1480]: where the note is “HBE assay”, the EC50 was less than 1 µM. Under setting [8], the Emax is more than 60%.
For the molecule `Cc1cccc(C)c1-c1cc2nc(n1)NS(=O)(=O)c1cccc(c1)C(=O)N(Cc1ccc(C3CC4(C3)CC(C)(C)C4)cn1)[C@H](CC(C)(C)C)CO2` [Compound 1057], the activation at 10 µM under setting [3] was more than 600%.
Regarding `Cc1cccc(C)c1-c1cc2nc(n1)NS(=O)(=O)c1cccc(c1)C(=O)N(Cc1ncc(N(C(C)C)C(C)C)cn1)[C@H](CC(C)(C)C)CO2` [Compound 629], under “Table 11”, the EC50 lay in the range of 3 to 30 µM. For the same molecule, the Emax under setting [1] is more than 60%.
`Cc1cccc(C)c1-c1cc2nc(n1)NS(=O)(=O)c1cccc(c1)C(=O)N(CC(=O)NCc1cnccn1)[C@H](CC(C)(C)C)CO2` [Compound 216]: under setting [2], the activation at 10 µM was more than 600%.
For `Cc1cccc(C)c1-c1cc2nc(n1)NS(=O)(=O)c1cccc(c1)C(=O)N(Cc1cc3n(n1)CCC3)[C@H](CC(C)(C)C)CO2` [Compound 455], under setting [2], the activation at 10 µM was more than 600%.
`Cc1cccc(C)c1-c1cc2nc(n1)NS(=O)(=O)c1cccc(c1)C(=O)N(Cc1cccc(NC34CC(C3)C4)n1)[C@H](CC(C)(C)C)CO2` [Compound 440]: the EC50 (Table 12) is less than 1 µM. Besides, under setting [6], the Emax was more than 60%.
Consider `Cc1cccc(C)c1-c1cc2nc(n1)NS(=O)(=O)c1cccc(c1)C(=O)N(Cc1cccc(N3C4CCC3CC4)n1)[C@H](CC(C)(C)C)CO2` [Compound 1398], for which the EC50 (HBE assay) is less than 1 µM. Moreover, under setting [8], the Emax was more than 60%.
For the molecule `Cc1cccc(C)c1-c1cc2nc(n1)NS(=O)(=O)c1cccc(c1)C(=O)N(Cc1ccc(-c3c[nH]nc3C3CC3)cn1)[C@H](CC(C)(C)C)CO2` [Compound 297], the EC50 (Table 10) was less than 1 µM. Moreover, the Emax under setting [5] was more than 60%.
Take `CCOc1cccnc1CN1C(=O)c2cccc(c2)S(=O)(=O)Nc2nc(cc(-c3c(C)cccc3C)n2)OC[C@H]1CC(C)(C)C` [Compound 742]: the EC50 (Table 11) was less than 1 µM. In addition, the Emax under setting [1] is more than 60%.
As for `Cc1cccc(C)c1-c1cc2nc(n1)NS(=O)(=O)c1cccc(c1)C(=O)N(CC(=O)NC1CCCCC1)[C@H](CC(C)(C)C)CO2` [Compound 205], the activation at 10 µM under setting [3] was more than 600%.
Consider `Cc1cccc(C)c1-c1cc2nc(n1)NS(=O)(=O)c1cccc(c1)C(=O)N(CC(=O)N1CCC3(CCC3)C1)[C@H](CC(C)(C)C)CO2` [Compound 165], for which the activation at 10 µM under setting [3] is more than 600%.
As to `Cc1cccc(C)c1-c1cc2nc(n1)NS(=O)(=O)c1cccc(c1)C(=O)N(Cc1ccc(-c3cnoc3)cn1)[C@H](CC(C)(C)C)CO2` [Compound 291], the Emax under setting [5] was more than 60%.
On to `Cc1cccc(C)c1-c1cc2nc(n1)NS(=O)(=O)c1cccc(c1)C(=O)N(C[C@H]1CC[C@@H](N3CCCC3=O)CC1)[C@H](CC(C)(C)C)CO2` [Compound 910], for which the 50% effective concentration (EC50) (Table 10) was less than 1 µM. Further, the Emax under setting [5] was more than 60%.
As to `Cc1cccc(C)c1-c1cc2nc(n1)NS(=O)(=O)c1cccc(c1)C(=O)N(Cc1cccc(N(C)C3CCOC3)n1)[C@H](CC(C)(C)C)CO2` (stereo partly drawn) [Compound 1347], the EC50 (HBE assay) is less than 1 µM. Also, the Emax under setting [8] was more than 60%.
For the molecule `Cc1cccc(C)c1-c1cc2nc(n1)NS(=O)(=O)c1cccc(c1)C(=O)N(Cc1ncc(Br)cc1C(F)(F)F)[C@H](CC(C)(C)C)CO2` [Compound 1119], the activation at 10 µM under setting [3] was more than 600%.
In the case of `Cc1cccc(C)c1-c1cc2nc(n1)NS(=O)(=O)c1cccc(c1)C(=O)N(Cc1ccc(OCC(=O)N(C)C)cc1)[C@H](CC(C)(C)C)CO2` [Compound 779], the EC50 (Table 10) was less than 1 µM. In addition, the Emax under setting [5] was more than 60%.
The corresponding values for `COCCN(C)c1ccc(CN2C(=O)c3cccc(c3)S(=O)(=O)Nc3nc(cc(-c4c(C)cccc4C)n3)OC[C@H]2CC(C)(C)C)nc1` [Compound 504] are 1 to 3 µM and more than 60%.
With `Cc1cccc(C)c1-c1cc2nc(n1)NS(=O)(=O)c1cccc(c1)C(=O)N(Cc1cccc(C3CCC3)n1)[C@H](CC(C)(C)C)CO2` [Compound 626], the EC50 (Table 11) is less than 1 µM. The Emax under setting [1] was more than 60%.
As to `Cc1cccc(C)c1-c1cc2nc(n1)NS(=O)(=O)c1cccc(c1)C(=O)N(Cc1cc3c(cn1)OCCO3)[C@H](CC(C)(C)C)CO2` [Compound 758], the activation at 10 µM under setting [7] was more than 60%.
With `Cc1cccc(C)c1-c1cc2nc(n1)NS(=O)(=O)c1cccc(c1)C(=O)N(CC1CCN(c3ccncc3)CC1)[C@H](CC(C)(C)C)CO2` [Compound 492], the activation at 10 µM under setting [4] is more than 60%.
Take `Cc1cccc(C)c1-c1cc2nc(n1)NS(=O)(=O)c1cccc(c1)C(=O)N(CC1CC(C)(C)OC(C)(C)C1)[C@H](CC(C)(C)C)CO2` [Compound 30, (11R)-6-(2,6-Dimethylphenyl)-11-(2,2-dimethylpropyl)-12-[(2,2,6,6-tetramethyloxan-4-yl)methyl]-9-oxa-2λ^6-thia-3,5,12,19-tetraazatricyclo[12.3.1.14,8]nonadeca-1(18),4,6,8(19),14,16-hexaene-2,2,13-trione]: the activation at 10 µM under setting [7] is more than 60%.
With `Cc1cccc(C)c1-c1cc2nc(n1)NS(=O)(=O)c1cccc(c1)C(=O)N(CC(=O)N(C)Cc1ccccn1)[C@H](CC(C)(C)C)CO2` [Compound 221], the EC50 (Table 12) was less than 1 µM. For the same molecule, the Emax under setting [6] was more than 60%.

Values taken from US20240150377A1, “MODULATORS OF CYSTIC FIBROSIS TRANSMEMBRANE CONDUCTANCE REGULATOR” (VERTEX PHARMACEUTICALS INCORPORATED, priority 2020, published 2024).
